Measured values published in ChEMBL document CHEMBL3991601, “The target landscape of clinical kinase drugs” (Science, 2017).
The source made the active and inactive calls.

These compounds were tested against Adenylate kinase 2, mitochondrial (Homo sapiens, UniProt P54819).
Further: in the data inactive means no Kd found up to 30 µM.

SMILES | Kd
C[C@@H]1CN(Cc2ccc(F)cc2)[C@@H](C)CN1C(=O)c1cc2c(C(=O)C(=O)N(C)C)cn(C)c2cc1Cl [TALMAPIMOD] | > 30 µM (inactive)
CN1CCC(COc2cnc(-c3cccc(Cn4nc(-c5cccc(C#N)c5)ccc4=O)c3)nc2)CC1 [TEPOTINIB] | > 30 µM (inactive)
O=c1sn(-c2cccc3ccccc23)c(=O)n1Cc1ccccc1 [TIDEGLUSIB] | > 30 µM (inactive)
CC(=O)Nc1cccc(-n2c(=O)n(C3CC3)c(=O)c3c(Nc4ccc(I)cc4F)n(C)c(=O)c(C)c32)c1 [TRAMETINIB] | > 30 µM (inactive)

What follows are compounds tested against T1, Serine/threonine-protein kinase A-Raf (Homo sapiens, UniProt P10398).
T1 sequence (P10398 whole entry): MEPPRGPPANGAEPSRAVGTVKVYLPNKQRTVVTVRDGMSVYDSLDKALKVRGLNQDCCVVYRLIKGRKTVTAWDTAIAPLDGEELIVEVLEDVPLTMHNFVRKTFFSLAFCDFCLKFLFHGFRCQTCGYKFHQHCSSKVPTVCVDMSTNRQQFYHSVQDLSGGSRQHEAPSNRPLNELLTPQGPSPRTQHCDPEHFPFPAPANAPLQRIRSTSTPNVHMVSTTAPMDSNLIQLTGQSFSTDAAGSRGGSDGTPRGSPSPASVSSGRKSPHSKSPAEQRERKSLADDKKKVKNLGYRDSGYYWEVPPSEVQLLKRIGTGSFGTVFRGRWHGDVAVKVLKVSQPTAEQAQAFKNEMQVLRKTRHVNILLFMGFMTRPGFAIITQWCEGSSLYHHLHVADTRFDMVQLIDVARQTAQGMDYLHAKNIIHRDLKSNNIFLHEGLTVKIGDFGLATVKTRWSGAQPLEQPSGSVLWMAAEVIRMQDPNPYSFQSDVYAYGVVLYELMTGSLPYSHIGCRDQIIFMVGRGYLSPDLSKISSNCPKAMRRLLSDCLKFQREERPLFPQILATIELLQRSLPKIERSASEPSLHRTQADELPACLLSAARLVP

SMILES | Kd
C[C@@H]1CN(Cc2ccc(F)cc2)[C@@H](C)CN1C(=O)c1cc2c(C(=O)C(=O)N(C)C)cn(C)c2cc1Cl [TALMAPIMOD] | > 30 µM (inactive)
CN1CCC(COc2cnc(-c3cccc(Cn4nc(-c5cccc(C#N)c5)ccc4=O)c3)nc2)CC1 [TEPOTINIB] | > 30 µM (inactive)
O=c1sn(-c2cccc3ccccc23)c(=O)n1Cc1ccccc1 [TIDEGLUSIB] | > 30 µM (inactive)
CC(=O)Nc1cccc(-n2c(=O)n(C3CC3)c(=O)c3c(Nc4ccc(I)cc4F)n(C)c(=O)c(C)c32)c1 [TRAMETINIB] | > 30 µM (inactive)

Each compound was assayed against Cyclin-dependent kinase 1 (Homo sapiens, UniProt P06493).
Cyclin-dependent kinase 1, sequence (P06493 whole entry): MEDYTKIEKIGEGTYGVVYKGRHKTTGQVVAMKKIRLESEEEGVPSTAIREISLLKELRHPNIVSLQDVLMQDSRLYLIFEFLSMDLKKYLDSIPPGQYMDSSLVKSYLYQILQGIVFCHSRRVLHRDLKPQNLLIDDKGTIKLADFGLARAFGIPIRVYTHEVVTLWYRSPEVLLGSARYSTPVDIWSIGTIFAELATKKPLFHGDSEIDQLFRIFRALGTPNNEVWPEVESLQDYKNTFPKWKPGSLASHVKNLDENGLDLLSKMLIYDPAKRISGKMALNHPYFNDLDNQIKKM

SMILES | Kd
C[C@@H]1CN(Cc2ccc(F)cc2)[C@@H](C)CN1C(=O)c1cc2c(C(=O)C(=O)N(C)C)cn(C)c2cc1Cl [TALMAPIMOD] | > 30 µM (inactive)
CN1CCC(COc2cnc(-c3cccc(Cn4nc(-c5cccc(C#N)c5)ccc4=O)c3)nc2)CC1 [TEPOTINIB] | > 30 µM (inactive)
O=c1sn(-c2cccc3ccccc23)c(=O)n1Cc1ccccc1 [TIDEGLUSIB] | > 30 µM (inactive)
CC(=O)Nc1cccc(-n2c(=O)n(C3CC3)c(=O)c3c(Nc4ccc(I)cc4F)n(C)c(=O)c(C)c32)c1 [TRAMETINIB] | > 30 µM (inactive)

What follows are compounds tested against T2, Mitogen-activated protein kinase kinase kinase 6 (Homo sapiens, UniProt O95382).
T2 sequence (O95382 whole entry): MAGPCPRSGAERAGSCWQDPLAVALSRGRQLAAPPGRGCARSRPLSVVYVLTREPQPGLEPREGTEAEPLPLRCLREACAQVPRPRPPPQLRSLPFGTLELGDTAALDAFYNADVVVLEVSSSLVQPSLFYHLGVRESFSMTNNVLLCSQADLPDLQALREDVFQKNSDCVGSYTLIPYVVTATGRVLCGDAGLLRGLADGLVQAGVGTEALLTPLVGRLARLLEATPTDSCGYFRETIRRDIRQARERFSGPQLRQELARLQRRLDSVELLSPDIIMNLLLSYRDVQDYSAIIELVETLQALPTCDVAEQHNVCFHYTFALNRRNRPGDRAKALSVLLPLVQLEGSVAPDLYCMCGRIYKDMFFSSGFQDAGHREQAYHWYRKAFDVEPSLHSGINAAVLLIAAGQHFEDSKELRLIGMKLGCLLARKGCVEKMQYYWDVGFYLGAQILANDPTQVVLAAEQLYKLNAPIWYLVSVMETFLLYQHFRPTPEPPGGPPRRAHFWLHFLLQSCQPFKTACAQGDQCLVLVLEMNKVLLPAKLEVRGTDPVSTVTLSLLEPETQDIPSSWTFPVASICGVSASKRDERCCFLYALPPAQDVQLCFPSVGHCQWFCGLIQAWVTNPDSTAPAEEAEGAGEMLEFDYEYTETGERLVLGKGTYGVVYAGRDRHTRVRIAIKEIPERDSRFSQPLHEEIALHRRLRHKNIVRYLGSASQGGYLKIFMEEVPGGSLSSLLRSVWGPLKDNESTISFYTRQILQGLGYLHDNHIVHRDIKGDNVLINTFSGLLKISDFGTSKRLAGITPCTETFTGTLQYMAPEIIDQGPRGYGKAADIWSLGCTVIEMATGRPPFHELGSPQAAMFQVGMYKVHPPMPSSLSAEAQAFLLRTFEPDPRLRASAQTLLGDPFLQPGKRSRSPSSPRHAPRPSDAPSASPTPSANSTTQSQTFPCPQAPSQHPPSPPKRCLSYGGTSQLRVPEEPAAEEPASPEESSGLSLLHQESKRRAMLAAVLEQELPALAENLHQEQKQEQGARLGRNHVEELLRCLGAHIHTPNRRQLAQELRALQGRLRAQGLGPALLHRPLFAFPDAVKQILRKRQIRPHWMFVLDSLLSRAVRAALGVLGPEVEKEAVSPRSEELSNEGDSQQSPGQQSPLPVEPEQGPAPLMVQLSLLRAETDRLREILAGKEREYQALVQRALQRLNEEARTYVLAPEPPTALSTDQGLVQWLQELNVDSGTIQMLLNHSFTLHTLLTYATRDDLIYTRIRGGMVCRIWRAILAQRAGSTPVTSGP

SMILES | Kd
C[C@@H]1CN(Cc2ccc(F)cc2)[C@@H](C)CN1C(=O)c1cc2c(C(=O)C(=O)N(C)C)cn(C)c2cc1Cl [TALMAPIMOD] | > 30 µM (inactive)
CN1CCC(COc2cnc(-c3cccc(Cn4nc(-c5cccc(C#N)c5)ccc4=O)c3)nc2)CC1 [TEPOTINIB] | > 30 µM (inactive)
O=c1sn(-c2cccc3ccccc23)c(=O)n1Cc1ccccc1 [TIDEGLUSIB] | > 30 µM (inactive)
CC(=O)Nc1cccc(-n2c(=O)n(C3CC3)c(=O)c3c(Nc4ccc(I)cc4F)n(C)c(=O)c(C)c32)c1 [TRAMETINIB] | > 30 µM (inactive)

Each compound was assayed against T3, Serine/threonine-protein kinase PLK4 (Homo sapiens, UniProt O00444).
T3 sequence (O00444 whole entry): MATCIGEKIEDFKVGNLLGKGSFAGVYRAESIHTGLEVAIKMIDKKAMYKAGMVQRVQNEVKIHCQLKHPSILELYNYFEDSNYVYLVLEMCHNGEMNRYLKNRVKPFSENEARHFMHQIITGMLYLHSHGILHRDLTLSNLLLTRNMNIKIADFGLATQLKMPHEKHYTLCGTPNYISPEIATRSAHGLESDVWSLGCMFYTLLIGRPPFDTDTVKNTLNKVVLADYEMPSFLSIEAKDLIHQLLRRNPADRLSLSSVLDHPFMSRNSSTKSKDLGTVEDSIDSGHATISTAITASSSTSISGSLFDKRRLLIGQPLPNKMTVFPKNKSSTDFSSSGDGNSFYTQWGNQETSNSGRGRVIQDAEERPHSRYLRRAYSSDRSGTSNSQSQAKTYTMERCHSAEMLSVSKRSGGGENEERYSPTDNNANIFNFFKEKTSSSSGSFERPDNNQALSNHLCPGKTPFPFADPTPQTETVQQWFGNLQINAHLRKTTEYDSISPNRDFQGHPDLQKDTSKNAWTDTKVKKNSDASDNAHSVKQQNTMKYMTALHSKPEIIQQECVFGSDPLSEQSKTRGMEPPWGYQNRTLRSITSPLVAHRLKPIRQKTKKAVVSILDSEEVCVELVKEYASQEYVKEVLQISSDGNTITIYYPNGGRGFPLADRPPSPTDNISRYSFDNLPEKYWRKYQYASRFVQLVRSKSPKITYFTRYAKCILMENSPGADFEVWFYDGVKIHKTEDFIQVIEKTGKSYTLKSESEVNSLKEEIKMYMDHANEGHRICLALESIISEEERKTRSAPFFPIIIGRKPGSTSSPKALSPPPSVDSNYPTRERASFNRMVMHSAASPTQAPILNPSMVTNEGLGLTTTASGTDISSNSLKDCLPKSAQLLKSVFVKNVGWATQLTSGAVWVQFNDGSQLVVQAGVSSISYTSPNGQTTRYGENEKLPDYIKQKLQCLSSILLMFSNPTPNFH

SMILES | Kd
C[C@@H]1CN(Cc2ccc(F)cc2)[C@@H](C)CN1C(=O)c1cc2c(C(=O)C(=O)N(C)C)cn(C)c2cc1Cl [TALMAPIMOD] | > 30 µM (inactive)
CN1CCC(COc2cnc(-c3cccc(Cn4nc(-c5cccc(C#N)c5)ccc4=O)c3)nc2)CC1 [TEPOTINIB] | > 30 µM (inactive)
O=c1sn(-c2cccc3ccccc23)c(=O)n1Cc1ccccc1 [TIDEGLUSIB] | > 30 µM (inactive)
CC(=O)Nc1cccc(-n2c(=O)n(C3CC3)c(=O)c3c(Nc4ccc(I)cc4F)n(C)c(=O)c(C)c32)c1 [TRAMETINIB] | > 30 µM (inactive)

What follows are compounds tested against Receptor-interacting serine/threonine-protein kinase 3 (Homo sapiens, UniProt Q9Y572).
Receptor-interacting serine/threonine-protein kinase 3, sequence (Q9Y572 whole entry): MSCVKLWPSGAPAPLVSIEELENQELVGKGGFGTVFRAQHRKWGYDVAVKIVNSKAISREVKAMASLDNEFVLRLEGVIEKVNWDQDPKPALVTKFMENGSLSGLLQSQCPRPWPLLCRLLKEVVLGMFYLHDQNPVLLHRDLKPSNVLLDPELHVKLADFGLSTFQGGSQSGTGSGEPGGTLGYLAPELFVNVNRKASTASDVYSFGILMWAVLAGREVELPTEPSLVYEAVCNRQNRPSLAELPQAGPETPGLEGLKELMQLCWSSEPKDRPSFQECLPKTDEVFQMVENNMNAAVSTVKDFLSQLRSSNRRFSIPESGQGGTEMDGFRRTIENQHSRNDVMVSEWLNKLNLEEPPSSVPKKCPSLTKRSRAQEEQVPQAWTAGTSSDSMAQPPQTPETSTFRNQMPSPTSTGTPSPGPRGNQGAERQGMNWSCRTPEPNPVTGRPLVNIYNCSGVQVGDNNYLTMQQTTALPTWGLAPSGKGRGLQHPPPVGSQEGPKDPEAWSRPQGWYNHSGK

SMILES | Kd
C[C@@H]1CN(Cc2ccc(F)cc2)[C@@H](C)CN1C(=O)c1cc2c(C(=O)C(=O)N(C)C)cn(C)c2cc1Cl [TALMAPIMOD] | > 30 µM (inactive)
CN1CCC(COc2cnc(-c3cccc(Cn4nc(-c5cccc(C#N)c5)ccc4=O)c3)nc2)CC1 [TEPOTINIB] | > 30 µM (inactive)
O=c1sn(-c2cccc3ccccc23)c(=O)n1Cc1ccccc1 [TIDEGLUSIB] | > 30 µM (inactive)
CC(=O)Nc1cccc(-n2c(=O)n(C3CC3)c(=O)c3c(Nc4ccc(I)cc4F)n(C)c(=O)c(C)c32)c1 [TRAMETINIB] | > 30 µM (inactive)
